Assays:
[1] = target: T1, α-La (Bos taurus, UniProt P00711); experiment: Binding isotherm: number of GA molecules bound per α-La molecule (endogenous fluorescence); conditions: α-La 20 µmol/L, 25 °C
T1 construct: purchased Davisco Foods International
T1 sequence (P00711 20-142): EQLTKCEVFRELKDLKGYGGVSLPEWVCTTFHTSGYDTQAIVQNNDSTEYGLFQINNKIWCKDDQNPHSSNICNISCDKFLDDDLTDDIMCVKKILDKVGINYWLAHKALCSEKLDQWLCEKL
Protocol: Determination of the number of molecules of glycyrrhizic acid binding α-La: under 25 degree Celsius (°C) and fixed concentration of α-La of 20 µmol/L, adjusting the concentration of GA (0 - 15.0 mM) to obtain a α-La-GA mixed solution; calculating an average value (v) of each protein molecule bound to surfactant molecules by measuring the endogenous fluorescence (λex = 295 nm) of α-La-GA mixed solution, and obtaining a binding isotherm from the change of the average number with the total concentration of GA as shown in FIG. 2.
Binding isotherm allows a good understanding of protein-glycyrrhizic acid binding behavior, with the average value (v) of glycyrrhizic acid molecules bound per protein molecule as the response value being used as a criterion for determination. […] In the region II of 0.02<CGA<1.00 mM, the average value v of bound GA molecules increases slowly but obviously, where the maximum fluorescence intensity is decreased. In the region III between 1.00 mM and 15.00 mM, a large number of synergistic binding appears with the formation of protein aggregates. Moreover, the values v under different pH conditions vary greatly in regions II and III (see Table 1). Acidic conditions can induce more GA molecules to bind with α-La in the process of non-cooperative binding and cooperative binding, which may be due to the fact that the structure of α-La is unfolded under acidic conditions, prompting more hydrophobic groups to be exposed, thus making α-La binding with more GA molecules.

[2] = target: T1, α-La; experiment: Aggregation of GA in the presence of α-La (ANS fluorescence, CAC breakpoint); assay type: physicochemical; conditions: in the presence of α-La and ANS
Protocol: Measurement of aggregation: adding 8-Anilino-1-naphthalenesulfonic acid (ANS) solution (80 microliter (µL), 8 mmol/L) into 4 milliliter (mL) of the mixed solutions prepared in Embodiment 1 and Embodiment 2, respectively, and standing the solutions in the dark for 15 min; measuring the aggregation with a 1 centimeter (cm) light path cuvette, setting the excitation/emission slit of the instrument to 5.0/2.5 nano-meter (nm), the excitation wavelength at 355 nm, and recording the emission spectrum as 360 - 600 nm; recording the value of the most fluorescent intensity.
The threshold concentration required to form small molecular aggregates on the surface of protein is called critical aggregation concentration (CAC), which is usually lower than critical micelle concentration (CMC). […] For example, the minimum value of fluorescence of α-La is recorded under neutral condition and 1.0 mM GA, while the minimum value is observed after adding 2.0 mM GA in acid solution; this is because the pH of the original solution of GA is 4.3, while the carboxylate of GA is protonated and its electrostatic charge is shielded when the pH is 2.5, which leads to the decrease of repulsion between GA molecules and promotes self-assembly of molecules to form aggregates; GA is easier to polymerize under acidic conditions when the concentration of α-La is constant, that is, it has a smaller CAC.

[3] = pH of the original solution of GA; assay type: physicochemical

average value v of GA molecules bound per protein molecule ([1]; pH 2.5, characteristic area I, CGA 0 - 0.20): 0 - 8.96
average value v of GA molecules bound per protein molecule ([1]; pH 2.5, characteristic area II, CGA 0.20 - 1.00): 8.96 - 48.95
average value v of GA molecules bound per protein molecule ([1]; pH 7.0, characteristic area I, CGA 0 - 0.20): 0 - 5.22
average value v of GA molecules bound per protein molecule ([1]; pH 7.0, characteristic area II, CGA 0.20-1.00): 5.22 - 39.49
average value v of GA molecules bound per protein molecule ([1]; pH 7.0, characteristic area III, CGA 1.00-15.00): 39.49 - 998.19
GA concentration at minimum value of fluorescence of α-La (breakpoint, CAC) ([2]; acid solution): 2.0 mM
GA concentration at minimum value of fluorescence of α-La (breakpoint, CAC) ([2]; neutral condition): 1.0 mM
pH of the original solution of GA [3]: 4.3
Structure (SMILES): CC1(C)[C@@H](O[C@H]2O[C@H](C(=O)O)[C@@H](O)[C@H](O)[C@H]2O[C@@H]2O[C@H](C(=O)O)[C@@H](O)[C@H](O)[C@H]2O)CC[C@]2(C)[C@H]3C(=O)C=C4[C@@H]5C[C@@](C)(C(=O)O)CC[C@]5(C)CC[C@@]4(C)[C@]3(C)CC[C@@H]12 [GA, glycyrrhizic acid]

Source: patent US20230148626A1, “PROTEIN-BASED FORMING AGENT, PREPARATION METHOD AND APPLICATION THEREOF” (NORTHEAST AGRICULTURAL UNIVERSITY, priority 2021, published 2023)
